Read-outs that look alike come from different tables or passages of the source.

Series [1] is described as follows: Crystal size distribution of flufenamic acid crystals by particle analyzer probe (FBRM). The series is classed as physicochemical. The note with it: FIG. 10. How it is done:
An undersaturated solution of flufenamic acid (a non-steroidal anti-inflammatory drug) was prepared with 8.7 grams of the active pharmaceutical drug and 700 ml of ethanol (the solvent) in a 1000 ml volumetric flask. The solution was stirred at room temperature (i.e., 25° C.) until complete dissolution.
Flufenamic acid solution and water (the antisolvent) were added to the reactor at constant flow rates using peristaltic pumps. The flow rate of antisolvent added to reactor was chosen in order to maintain a solution/antisolvent ratio of 1:2 vol/vol (ml/ml) in all experiments.
The effects regarding number of addition points of antisolvent on particle size distribution were studied and are summarized in Table 3. In sum, four experiments were conducted. For each experiment, the total antisolvent flow rate was 200 ml/min. In Experiment 1, there was one antisolvent addition point with 200 ml/min of […] added therein. In Experiment 2, there were two antisolvent addition points with 100 ml/min of antisolvent added to the first and second reactor modules, respectively. In Experiment 3, there were three antisolvent addition points with 67 ml/min of antisolvent added to the first, second and third reactor modules, respectively. In Experiment 4, there were four antisolvent addition points with 50 ml/min of antisolvent added to the first, second, third and fourth reactor modules, respectively.
The Raman spectra of the product crystals was collected to ascertain polymorphic form. The CSD of the solid product was also characterized using a particle analyzer probe (e.g., a Lasentec brand probe). The dried crystals were slurried in water and 0.5% of sodium dodecyl sulfate (SDS) surfactant was added to disperse the particles. A magnetic stirrer was used to keep the particles suspended during particle analysis measurements.

The conditions of series [2]: water/methanol 80:20, one stage.
Protocol: The solution was maintained at about 35° C., which is 10° C. above the saturation temperature, for at least 2 hours under gentle agitation for complete dissolution of solids. The solution was cooled down and maintained at room temperature (i.e., 25° C.) overnight (approximately 8 hours).
The concentration of antisolvent introduced to the reactor 403 was suitable to maintain a solution/antisolvent ratio of about 80:20 vol/vol (ml/ml) in all of the experiments.
Three experiments were conducted with one point of antisolvent addition (one stage or one reactor module). The residence time for experiments 1, 2 and 3 were 0.5 to 2 min, respectively.
The process was performed under vacuum. The solid phase was dried overnight (approximately 8 hours) at about 65° C. Raman spectra of the product crystals were collected to ascertain the polymorphic form.
The nature of series [3]: Crystal size distribution of ketoconazole crystals by laser diffraction (continuous plug flow antisolvent crystallization). The format is physicochemical. Here is the method: A saturated solution of ketoconazole (an anti-fungal drug) was prepared with about 39 grams of the pharmaceutical compound and about 470 ml of methanol as the solvent in a 1000 ml volumetric flask. The solution was maintained at about 35° C. (10° C. above the saturation temperature) for about 2 hours under gentle agitation to ensure complete dissolution of the solids.
The ketoconazole feed solution (ketoconazole and methanol) and the antisolvent (water) were added to the reactor 403 at a constant flow rate using peristaltic pumps 405. The total amount of antisolvent added to the reactor 403 was enough to maintain a solution/antisolvent ratio of about 70:30 vol/vol (ml/ml) in all of the experiments.
The effect of residence time in the reactor (the term residence time is used to denote the total cumulative residence time in all of the reactor modules combined) and number of stages (that is, the number of reactor modules) on crystal size distribution was studied. […]
The effects of residence time and number of stages on the CSD were analyzed. […] Further, the diluted ketoconazole solid in methanol was measured with a UV spectrophotometer (e.g., a GENESYS 20 UV spectrophotometer) in order to determine the concentration of the ketoconazole. […]
The CSD of ketoconazole was measured at different residence times and number of stages as illustrated in Table 1 using laser diffraction. […]

Take `O=C(O)c1ccccc1Nc1cccc(C(F)(F)F)c1` [flufenamic acid]: the mean crystal size in series [1] (first addition point of antisolvent, ethanol/water 1:2) is reported as 65-70 μm; in series [1] (printed as third addition point (second mention)), “approximately 110 μm”; in series [1] (second addition point of antisolvent), “approximately 80 μm”; in series [1] (third addition point of antisolvent), “approximately 95 μm”.
As to `NCC(=O)O` [glycine], the entries for the “polymorphic form of product crystals” value in series [2] (as the residence time increased) and in series [2] (low residence time) were “β-glycine crystals” and “α-glycine crystals”, respectively.
On to `CC(=O)N1CCN(c2ccc(OCC3COC(Cn4ccnc4)(c4ccc(Cl)cc4Cl)O3)cc2)CC1` (centres unmarked) [ketoconazole], for which the mean crystal size result in series [3] (FIG. 5, first stage of antisolvent addition, residence time about 40 min, methanol/water 70:30) is reported as “about 2.5 μm”; in series [3] (FIG. 7, two points of antisolvent addition), “about 3.0 μm”.

Values taken from patent US8216363B2, “Continuous antisolvent crystallization process and system using plug flow reactors” (Illinois Institute of Technology, priority 2008, dated 2012).
